Measurements: US20250206730A1 (AUTOTELIC BIO INC., priority 2022, published 2025)

How the values were obtained:
ALK5 kinase = biological target: T1, ALK5 kinase (Homo sapiens, UniProt P36897); assay: LanthaScreen Eu Kinase Binding Assay; settings: Kinase Tracer 178, Eu-anti-GST Antibody, read-out: IC50 Enzyme
T1 sequence (P36897 34-503): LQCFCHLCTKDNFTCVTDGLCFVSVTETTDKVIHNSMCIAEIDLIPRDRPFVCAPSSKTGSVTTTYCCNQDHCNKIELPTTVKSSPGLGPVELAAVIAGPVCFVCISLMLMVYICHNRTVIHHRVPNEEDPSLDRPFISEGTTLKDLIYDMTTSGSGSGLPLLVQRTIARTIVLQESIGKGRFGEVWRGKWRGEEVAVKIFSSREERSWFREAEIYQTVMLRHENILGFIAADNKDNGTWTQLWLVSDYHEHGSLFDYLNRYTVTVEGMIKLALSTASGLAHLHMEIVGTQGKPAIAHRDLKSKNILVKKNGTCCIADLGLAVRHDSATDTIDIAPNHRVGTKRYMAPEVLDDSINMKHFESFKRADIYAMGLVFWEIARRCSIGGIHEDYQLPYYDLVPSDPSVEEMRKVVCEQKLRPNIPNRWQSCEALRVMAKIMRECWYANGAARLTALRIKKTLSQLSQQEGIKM
Experimental: [Example 1] LanthaScreen Eu Kinase Binding Assay
4 μL of 4× Test Compound in 4% DMSO and 4 μL of 4× Kinase in Kinase buffer were added to wells (low volume, white 384-well plate (Greiner Cat. #784207)). The plate was shaken for 30 seconds, centrifuged for 10 seconds at 1000 rpm, and incubated at RT for 30 minutes. Then, 4 μL of 4× Eu-anti-GST Antibody and 4 μL of 4× Kinase Tracer 178 were added to the wells. The plate was shaken for 30 seconds, centrifuged for 10 seconds at 1000 rpm, and incubated at RT for 60 minutes. Fluorescence was measured by a plate reader, Biotek Synergy H1 (Vermont, USA) under the following conditions. • Excitation: 340 nm (3 nm bandpass) • Kinase tracer emission: 665 nm (10 nm bandpass) • Eu Ab emission: 615 nm (10 nm bandpass) • Emission ratio=665 nm (tracer)/615 nm (Eu Ab) • The higher the binding affinity of compound to ALK5 kinase is, the less the emission ratio is.

TGF-β signaling = assay: Assay for evaluating cellular inhibition of TGF-β signaling, 4T1 (SBE-luc2P) luciferase reporter; format: cell-based; settings: Mus musculus, 4T1, 4T1 (SBE-luc2P) transient pool, 0.2% FBS, 2 h pre-treatment, TGF-β1 2 ng/mL 24 h; read-out: IC50 4T1 Cell
Experimental: [Example 2] Assay for Evaluating Cellular Inhibition of TGF-β Signaling
4T1 (SBE-luc2P) transient pool that have SBE-luc2P (hygro) expression plasmid or HEK293 (SBE reporter) stable cells (BPS bioscience) were seeded at 6×10^3 cells/well or 2.5×10^4 cells/well in 96-well plate, respectively. 4T1 (SBE-luc2P) transient pool were pre-treated with novel compound synthesized in Example 1 above in 0.2% FBS at approximately 60% confluence at 37° C. in 5% CO2. Also, HEK293 (SBE reporter) stable cells were pre-treated with each test compounds of formula in 0.5% FBS at approximately 80% confluence at 37° C. in 5% CO2. After 2 hours, cells were treated with TGF-β1 (2 ng/mL) for 24 h at 37° C. in 5% CO2. Cell lysates were prepared using Luciferase Assay (Promega) according to the manufacturer's instruction, and luminescence was measured by a plate reader, Biotek Synergy H1 (Vermont, USA).

Compound | IC50 (ALK5 kinase) [nM] | IC50 (TGF-β signaling) [nM]
CNc1nc(-c2ccccc2)c(Oc2ccnc(Nc3ccc(C(C)(C)O)nc3)c2)s1 [A-55, 2-(5-((4-((2-(Methylamino)-4-phenylthiazol-5-yl)oxy)pyridin-2-yl)amino)pyridin-2-yl)propan-2-ol] | < 100 | 
CNS(=O)(=O)c1cccc(Nc2cc(Oc3sc(C)nc3-c3ccccc3)ccn2)c1 [A-73, N-Methyl-3-((4-((2-methyl-4-phenylthiazol-5-yl)oxy)pyridin-2-yl)amino)benzenesulfonamide] |  | < 100
CNS(=O)(=O)c1cccc(Nc2cc(Oc3sc(N)nc3-c3ccccc3)ccn2)c1 [A-12, 3-((4-((2-Amino-4-phenylthiazol-5-yl)oxy)pyridin-2-yl)amino)-N-methylbenzenesulfonamide] |  | < 100
Nc1nc(-c2ccccc2)c(Oc2ccnc(NCc3cccc(F)c3)c2)s1 [A-21, 5-((2-((3-Fluorobenzyl)amino)pyridin-4-yl)oxy)-4-phenylthiazol-2-amine] |  | > 100
Cc1nc(-c2ccccc2)c(Oc2ccnc(Nc3cn[nH]c3)c2)s1 [A-100, 4-((2-Methyl-4-phenylthiazol-5-yl)oxy)-N-(1H-pyrazol-4-yl)pyridin-2-amine] |  | < 100
Cc1nc(-c2ccccc2)c(Oc2ccnc(Nc3cccc(NS(=O)(=O)C4CC4)c3)c2)s1 [A-75, N-(3-((4-((2-Methyl-4-phenylthiazol-5-yl)oxy)pyridin-2-yl)amino)phenyl)cyclopropanesulfonamide] |  | < 100
CS(=O)(=O)c1cccc(Nc2cc(Oc3sc(N)nc3-c3ccccc3)ccn2)c1 [A-15, 5-((2-((3-(Methylsulfonyl)phenyl)amino)pyridin-4-yl)oxy)-4-phenylthiazol-2-amine] |  | < 100
Cc1cccc(-c2nc(C)sc2Oc2ccnc(Nc3cccc(Cc4nnn[nH]4)c3)c2)n1 [A-305, N-(3-((1H-Tetrazol-5-yl)methyl)phenyl)-4-((2-methyl-4-(6-methylpyridin-2-yl)thiazol-5-yl)oxy)pyridin-2-amine] |  | > 100
Cc1nc(-c2ccccc2)c(Oc2ccnc(NCc3cccnc3)c2)s1 [A-81, 4-((2-Methyl-4-phenylthiazol-5-yl)oxy)-N-(pyridin-3-ylmethyl)pyridin-2-amine] |  | > 100
Cc1nc(-c2ccccc2)c(Oc2ccnc(Nc3cccc(S(=O)(=O)NC4CC4)c3)c2)s1 [A-76, N-Cyclopropyl-3-((4-((2-methyl-4-phenylthiazol-5-yl)oxy)pyridin-2-yl)amino)benzenesulfonamide] |  | < 100
Cc1nc(-c2ccccc2)c(Oc2ccnc(Nc3cccc(CS(C)(=O)=O)c3)c2)s1 [A-79, 4-((2-Methyl-4-phenylthiazol-5-yl)oxy)-N-(3-((methylsulfonyl)methyl)phenyl)pyridin-2-amine] |  | < 100
COc1ccc(Nc2cc(Oc3sc(C)nc3-c3ccccc3)ccn2)cc1 [A-103, N-(4-Methoxyphenyl)-4-((2-methyl-4-phenylthiazol-5-yl)oxy)pyridin-2-amine] |  | > 100
Cc1nc(-c2ccccc2)c(Oc2ccnc(NCc3cccc(F)c3)c2)s1 [A-96, N-(3-Fluorobenzyl)-4-((2-methyl-4-phenylthiazol-5-yl)oxy)pyridin-2-amine] |  | > 100
COc1cc(Nc2cc(Oc3sc(C)nc3-c3ccccc3)ccn2)ccn1 [A-88, N-(2-Methoxypyridin-4-yl)-4-((2-methyl-4-phenylthiazol-5-yl)oxy)pyridin-2-amine] |  | < 100
Nc1nc(-c2ccccc2)c(Oc2ccnc(Nc3cccc(NS(=O)(=O)C4CC4)c3)c2)s1 [A-16, N-(3-((4-((2-Amino-4-phenylthiazol-5-yl)oxy)pyridin-2-yl)amino)phenyl)cyclopropanesulfonamide] |  | < 100
Cc1nc(-c2ccccc2)c(Oc2ccnc(NCc3ccc(F)cc3)c2)s1 [A-95, N-(4-Fluorobenzyl)-4-((2-methyl-4-phenylthiazol-5-yl)oxy)pyridin-2-amine] |  | > 100
COC(=O)c1cccc(Nc2cc(Oc3sc(C4CC4)nc3-c3ccccc3)ccn2)n1 [A-131, Methyl 6-((4-((2-cyclopropyl-4-phenylthiazol-5-yl)oxy)pyridin-2-yl)amino)picolinate] |  | > 100
COC(=O)c1cccc(Nc2cc(Oc3sc(N(C)C)nc3-c3ccccc3)ccn2)n1 [A-162, Methyl 6-((4-((2-(dimethylamino)-4-phenylthiazol-5-yl)oxy)pyridin-2-yl)amino)picolinate] |  | < 100

Now from value to compound:

IC50 (ALK5 kinase) [nM] | IC50 (TGF-β signaling) [nM] | Compound
< 100 |  | Cc1cccc(-c2nc(N)sc2Oc2ccnc(Nc3cccc(S(N)(=O)=O)c3)c2)n1 [A-247, 3-((4-((2-Amino-4-(6-methylpyridin-2-yl)thiazol-5-yl)oxy)pyridin-2-yl)amino)benzenesulfonamide]
< 100 |  | NC(=O)c1cccc(Nc2cc(Oc3sc(NC4CC4)nc3-c3ccccc3)ccn2)c1 [A-46, 3-((4-((2-(Cyclopropylamino)-4-phenylthiazol-5-yl)oxy)pyridin-2-yl)amino)benzamide]
 | > 100 | Nc1nc(-c2ccccc2)c(Oc2ccnc(NCc3ccccc3)c2)s1 [A-25, 5-((2-(Benzylamino)pyridin-4-yl)oxy)-4-phenylthiazol-2-amine]
 | < 100 | CCS(=O)(=O)c1cccc(Nc2cc(Oc3sc(N)nc3-c3ccccc3)ccn2)c1 [A-34, 5-((2-((3-(Ethylsulfonyl)phenyl)amino)pyridin-4-yl)oxy)-4-phenylthiazol-2-amine]
 | < 100 | CN(C)S(=O)(=O)c1cccc(Nc2cc(Oc3sc(N)nc3-c3ccccc3)ccn2)c1 [A-13, 3-((4-((2-Amino-4-phenylthiazol-5-yl)oxy)pyridin-2-yl)amino)-N,N-dimethylbenzenesulfonamide]
 | < 100 | Cc1cccc(-c2nc(C)sc2Oc2ccnc(Nc3cccc(CCc4nn[nH]n4)c3)c2)n1 [A-307, N-(3-(2-(2H-tetrazol-5-yl)ethyl)phenyl)-4-((2-methyl-4-(6-methylpyridin-2-yl)thiazol-5-yl)oxy)pyridin-2-amine]
 | > 100 | Cc1nc(-c2ccccc2)c(Oc2ccnc(Nc3ccc(F)nc3)c2)s1 [A-83, N-(6-Fluoropyridin-3-yl)-4-((2-methyl-4-phenylthiazol-5-yl)oxy)pyridin-2-amine]
 | > 100 | Nc1nc(-c2ccccc2)c(Oc2ccnc(NCc3ccncc3)c2)s1 [A-26, 4-Phenyl-5-((2-((pyridin-4-ylmethyl)amino)pyridin-4-yl)oxy)thiazol-2-amine]
 | > 100 | CS(=O)(=O)n1cc(Nc2cc(Oc3sc(N)nc3-c3ccccc3)ccn2)cn1 [A-62, 5-((2-((1-(Methylsulfonyl)-1H-pyrazol-4-yl)amino)pyridin-4-yl)oxy)-4-phenylthiazol-2-amine]
 | > 100 | Cc1nc(-c2ccccc2)c(Oc2ccnc(NCc3ccncc3)c2)s1 [A-80, 4-((2-Methyl-4-phenylthiazol-5-yl)oxy)-N-(pyridin-4-ylmethyl)pyridin-2-amine]
 | < 100 | Nc1nc(-c2ccccc2)c(Oc2cc(Nc3cccc(S(N)(=O)=O)c3)ncn2)s1 [A-239, 3-((6-((2-Amino-4-phenylthiazol-5-yl)oxy)pyrimidin-4-yl)amino)benzenesulfonamide]
 | < 100 | Nc1nc(-c2ccccc2)c(Oc2ccnc(Nc3cccc(NS(=O)(=O)C(F)(F)F)c3)c2)s1 [A-36, N-(3-((4-((2-Amino-4-phenylthiazol-5-yl)oxy)pyridin-2-yl)amino)phenyl)-1,1,1-trifluoromethanesulfonamide]
 | < 100 | CNC(=O)c1cccc(Nc2cc(Oc3sc(N)nc3-c3ccccc3)ccn2)c1 [A-23, 3-((4-((2-Amino-4-phenylthiazol-5-yl)oxy)pyridin-2-yl)amino)-N-methylbenzamide]
 | < 100 | NC(=O)c1cccc(Nc2cc(Oc3sc(N)nc3-c3ccccc3)ccn2)n1 [A-33, 6-((4-((2-Amino-4-phenylthiazol-5-yl)oxy)pyridin-2-yl)amino)picolinamide]
 | < 100 | COC(=O)c1ccc(Nc2cc(Oc3sc(C4CC4)nc3-c3ccccc3)ccn2)nc1 [A-130, Methyl 6-((4-((2-cyclopropyl-4-phenylthiazol-5-yl)oxy)pyridin-2-yl)amino)nicotinate]
